Measurements as given in patent US20120225093A1, “Abrogating HIV-1 Infection via Drug-Induced Reactivation of Apoptosis” (UNIVERSITY OF MEDICINE AND DENTISTRY OF NEW JERSEY, priority 2010, published 2012).

How the values were obtained:
HIV-1 promoter = experiment: Dual luciferase assay, HIV-1 molecular clone pNL4-3-LucE- and derived constructs in 293T cells; format: cell-based; conditions: for repression of luciferase expression (FF:Ren) from pNL4-3-LucE- / dose dependence of repression of expression from pNL4-3-LucE-: 12 hr post-transfection; for repression of luciferase expression (FF:Ren) from pNL4-3-LucE-: CPX 30 μM, DEF 250 μM, P2 30 μM; for inhibition of expression from construct VI: 3′-LTR replaced by SV40 poly(A) signal; for inhibition of FF expression from construct V: all open reading frames deleted except luciferase; for inhibition of FF expression from constructs III and IV: within 12 hr, Tat-deficient constructs complemented with Tat vector
Experimental: Plasmids were introduced into 2×10^5 293T cells by transfection using Lipofectamine 2000 (Invitrogen) according to the manufacturer's instructions. Compounds (such as CPX or DEF) were added simultaneously. Cells were harvested at 12 hr post-transfection, washed with PBS, lysed in 0.15 ml of 1× passive lysis buffer (Promega), and assayed for luciferase activity using the Promega dual luciferase reporter system according to the manufacturer's instructions. Jurkat cells (1×10^6 cells) were transfected using FuGENE 6 (Roche) according to the manufacturer's instructions and assayed in a similar fashion after pelleting.
293T cells (10^5 cells/well of 12-well microplates) were seeded and transfected 20 hr later with a firefly luciferase (Luc)-expressing reporter plasmid and corresponding Renilla luciferase (Ren)-expressing reference plasmid using TransFectin™ (Bio-Rad, Hercules, Calif.). The bioavailable intracellular iron concentration was monitored using plasmids obtained from B. Galy and M. W. Hentze (EMBL, Heidelberg). Plasmid pcFIF-Luc contains the mouse ferritin H 5′-UTR with an iron response element (IRE) controlling Luc; pcFIRo-Ren is a similar construct expressing a mutated non-functional IRE fused to Ren. The activity of the HIV-1 promoter was monitored using the pNL4-3-Luc E molecular clone (Chen et al. (1994) J Virol 68: 654-660.), based on the recombinant infectious proviral clone that contains DNA from HIV isolates NY5 (5′ half) and IIIB (3′ half). This plasmid, obtained from D. Baltimore (Caltech, Pasadena), contains the Luc gene in place of 102 nucleotides from nef and 6 nucleotides from env. pCMV-Ren (Promega, Madison, Wis.) was used as reference for pNL4-3-Luc E. Compounds were added at the time of transfection. Cells were harvested 12 hr later, washed with phosphate-buffered saline, and lysed for the dual luciferase assay (Dual Luciferase™ Reporter Assay System; Promega, Madison, Wis.). Luc data were normalized to the Ren internal controls (Hogue et al. (2009) Retrovirology 6: 90.).
293T cells were selected as a model system to explore the relationship between the drugs, eIF5A and HIV gene expression. These cells efficiently transcribe HIV-1 genes from molecular clones as well as subviral constructs, allowing for early detection of changes in HIV gene expression. To establish the system, assays were carried out to examine the effect of CPX and DEF on the expression of firefly luciferase (FF) from the HIV-1 molecular clone, pNL4-3-LucE-, engineered to carry the FF gene in place of the viral nef gene. The molecular clone was transfected into 293T cells together with the pCMV-Ren vector that expresses Renilla luciferase (Ren) from the cytomegalovirus (CMV) immediate early promoter as a control for transfection efficiency and non-specific effects of the compounds. Dual luciferase assays were conducted at 12 hr post-transfection and results are expressed as relative luciferase activity (FF:Ren). […] Assays therefore were carried out to characterize the action of CPX and DEF on eIF5A and HIV gene expression in 293T cells during the first 12 to 24 hr of drug treatment.

H9-HIV cells = experiment: Mitochondrial membrane potential (JC-1) in H9-HIV cells; format: cell-based; conditions: for Δψ collapse at low drug concentrations: 5 and 15 μM CPX, 50 and 100 μM DEF; for collapse of Δψ, infected versus uninfected cells: 24 hr, 30 μM CPX, 200 μM DEF
Experimental: (§1) The potential across the mitochondrial membrane of live cells was determined flow-cytometrically with the lipophilic cationic fluorochrome JC-1 (5,5′,6,6′-tetrachloro-1,1′,3,3′-tetraethylbenzimidazolcarbocyanine iodide) immediately after sample harvest (BD™ Mitoscreen Kit, BD Biosciences; San Diego, Calif.). DNA fragmentation was quantified flow-cytometrically, using a TUNEL (terminal deoxynucleotide transferase dUTP nick end-labeling) assay (APO-BRDU™; Phoenix Flow Systems; San Diego, Calif.) and a dual-color assay for annexin V binding and 7-AAD exclusion (Annexin V-PE 7-AAD Apoptosis Detection Kit I™; BD Biosciences Pharmingen, San Jose, Calif.). The apoptotic volume decrease of cells was assessed by the reduction of their diameter (VI-CELL™; Beckman Coulter; Fullerton, Calif.).
(§2) Next the effect of the drugs on apoptosis in H9 and H9-HIV cells was examined. Both CPX and DEF increased the collapse of Δψ in a manner that was dose-dependent and accentuated by viral infection (FIGS. 8E and F). […] Thus, exposure to CPX or DEF counteracted the HIV-mediated reduction of Δψ collapse and rendered infected cells more susceptible than uninfected cells to an early step in drug-induced apoptosis.

uninfected H9 cells = experiment: Mitochondrial membrane potential (JC-1) in uninfected H9 cells; format: cell-based; conditions: 30 μM CPX; 200 μM DEF
Experimental: as §1, §2

[1] = human, in vivo, cited from earlier work

Row | SMILES | repression of luciferase expression (FF:Ren) from pNL4-3-LucE- (HIV-1 promoter; DFOX 15 μM) | decrease of HIV-encoded luciferase expression (HIV-1 promoter; run parallel to IRE reporter (FIG. 11B), DFOX 15 μM) | inhibition of expression from construct VI (HIV-1 promoter) [%] | dose dependence of repression of expression from pNL4-3-LucE- (HIV-1 promoter) | inhibition of FF expression from construct V (HIV-1 promoter) [%] | inhibition of FF expression from constructs III and IV (HIV-1 promoter) [%] | Δψ collapse at low drug concentrations (H9-HIV cells) | collapse of Δψ, infected versus uninfected cells (H9-HIV cells) | concentrations needed for enhanced Δψ collapse (uninfected H9 cells) | systemic absorption [1] | concentration in serum ([1]; po) [µM] | plasma levels ([1]; po)
1 | Cc1ccn(O)c(=O)c1 [Agent P2, 1-hydroxy-4-methylpyridin-2[1H]-one] | ineffective | no effect on either IRE-dependent or HIV-encoded luciferase expression | – | – | – | – | – | – | – | – | – | –
2 | Cc1cc(C2CCCCC2)n(O)c(=O)c1 [CPX, 6-cyclohexyl-1-hydroxy-4-methylpyridin-2[1H]-one] | ~50% | – | ~50 | repressed expression from the HIV-1 molecular clone in a dose dependent fashion | ~50 | ~50 | enhanced Δψ collapse even at low drug concentrations | significantly increased collapse of Δψ compared to uninfected cells | higher concentrations were required | miniscule systemic absorption | – | –
3 | Cc1c(O)c(=O)ccn1C [DEF, 3-hydroxy-1,2-dimethylpyridin-4(1H)-one] | ~50% | – | ~50 | repressed expression from the HIV-1 molecular clone in a dose dependent fashion | ~50 | ~50 | enhanced Δψ collapse even at low drug concentrations | significantly increased collapse of Δψ compared to uninfected cells | higher concentrations were required | – | ≥ 250 | up to 350 μM
